*1 amine or outer side, *2 acyl side, *3 side chain or, on linkers, in order; H or OH if unused. Where a SMILES comes first, the peptide text is derived from it. [ ]: non-standard residue; d: D form. The star is where a group is joined. ξ: configuration not given here. ξLys(Nα-CO-ξAad) = O=C(O)CCCC(NC(=O)NC(CCCCN*)C(=O)O)C(=O)O; Butanoyl(4-(4-NO2Ph)) = O=C(CCCc1ccc([N+](=O)[O-])cc1)*; DOTA = O=C(O)CN1CCN(CC(=O)O)CCN(CC(=O)*)CCN(CC(=O)O)CC1; ξAla(9-anthryl) = NC(Cc1c2ccccc2cc2ccccc12)C(=O)O; X1 = O=C(C1CCC(CN[*:1])CC1)[*:2]; ξK = NCCCCC(N)C(=O)O
Test system: NRG-mice bearing LNCaP tumors
Test: Biodistribution (and PET/SPECT imaging) in NRG-mice bearing LNCaP tumors
Assay type: in vivo
Settings: for Biodistribution: Adrenal gland / Biodistribution: Blood / Biodistribution: Bone / Biodistribution: Brain / Biodistribution: Fat / Biodistribution: Heart / Biodistribution: Intestine / Biodistribution: LNCaP tumor / Biodistribution: Lacrimal gland / Biodistribution: Liver / Biodistribution: Lungs / Biodistribution: Muscle / Biodistribution: Pancreas / Biodistribution: Salivary gland / Biodistribution: Seminal gland / Biodistribution: Spleen / Biodistribution: Stomach / Biodistribution: Testes / Biodistribution: Thyroid / Biodistribution: Urine / Biodistribution: kidney: Avg
Protocol: LNCaP cell line was obtained from ATCC (LNCaP clone FGC, CRL-1740). It was established from a metastatic site of left supraclavicular lymph node of human prostatic adenocarcinoma. Cells were cultured in PRMI 1640 medium supplemented with 10% FBS, penicillin (100 U/mL) and streptomycin (100 μg/mL) at 37° C. in a humidified incubator containing 5% CO2. Cells grown to 80-90% confluence were then washed with sterile phosphate-buffered saline (1×PBS pH 7.4) and trypsinization. The collected cells number was counted with a Hausser Scientific (Horsham, PA) Hemacytometer. Approximately 10 million LNCaP cells were inoculated into the left dorsal flank of immunocomprised NRG mice. The tumours were allowed to grow for 4-6 weeks and used for imaging and biodistribution studies when a volume of 200-600 mm^3 was reached.
PET imaging experiments were conducted using Siemens Inveon micro PET/CT scanner. SPECT imaging experiments were conducted using an MILabs micro SPECT/CT scanner. Each tumor bearing mouse was injected 4-6 MBq of ^68Ga or 18.5 MBq of ^177Lu labeled tracer through the tail vein under anesthesia (2% isoflurane in oxygen). The mice were allowed to recover and roam freely in their cage. At pre-defined time point, the mice were sedated again with 2% isoflurane in oxygen inhalation and positioned in the scanner. A 10-min CT scan was conducted first for localization and attenuation correction after segmentation for reconstructing the PET or SPECT images. Then, a 10-min static PET imaging or a one hour (30 min×2 frames) of static SPECT scan was performed to determined uptake in tumor and other organs. The mice were kept warm by a heating pad during acquisition.
For biodistribution studies, the mice were injected with the radiotracer as described above. The mice were anesthetized with 2% isoflurane inhalation, and euthanized by CO2 inhalation. Blood was withdrawn immediately from the heart, and the organs/tissues of interest were collected. The collected organs/tissues were weighed and counted using a Perkin Elmer (Waltham, MA) Wizard2 2480 gamma counter. The uptake in each organ/tissue was normalized to the injected dose (radioactivity) using a standard curve, and expressed as the percentage of the injected dose per gram of tissue (% ID/g).

LNCaP tumor uptake compared to 177Lu-HTK03170: substantially improved
Biodistribution: Adrenal gland (3 h p.i.): 3.41 % ID/g
Biodistribution: Blood (3 h p.i.): 14.17 % ID/g
Biodistribution: Bone (3 h p.i.): 0.78 % ID/g
Biodistribution: Brain (3 h p.i.): 0.24 % ID/g
Biodistribution: Fat (3 h p.i.): 1.85 % ID/g
Biodistribution: Heart (3 h p.i.): 3.24 % ID/g
Biodistribution: Intestine (3 h p.i.): 1.03 % ID/g
Biodistribution: LNCaP tumor (3 h p.i.): 39.27 % ID/g
Biodistribution: Lacrimal gland (3 h p.i.): 0.20 % ID/g
Biodistribution: Liver (3 h p.i.): 2.31 % ID/g
Biodistribution: Lungs (3 h p.i.): 6.68 % ID/g
Biodistribution: Muscle (3 h p.i.): 1.18 % ID/g
Biodistribution: Pancreas (3 h p.i.): 2.27 % ID/g
Biodistribution: Salivary gland (3 h p.i.): 2.43 % ID/g
Biodistribution: Seminal gland (3 h p.i.): 0.93 % ID/g
Biodistribution: Spleen (3 h p.i.): 2.25 % ID/g
Biodistribution: Stomach (3 h p.i.): 1.55 % ID/g
Biodistribution: Testes (3 h p.i.): 6.56 % ID/g
Biodistribution: Thyroid (3 h p.i.): 2.87 % ID/g
Biodistribution: Urine (3 h p.i.): 97.91 % ID/g
Biodistribution: kidney (3 h p.i.): 17.31 % ID/g
Biodistribution: Adrenal gland (24 h p.i.): 0.61 % ID/g
Biodistribution: Blood (24 h p.i.): 0.61 % ID/g
Biodistribution: Bone (24 h p.i.): 0.07 % ID/g
Biodistribution: Brain (24 h p.i.): 0.03 % ID/g
Biodistribution: Fat (24 h p.i.): 0.20 % ID/g
Biodistribution: Heart (24 h p.i.): 0.24 % ID/g
Biodistribution: Intestine (24 h p.i.): 0.13 % ID/g
Biodistribution: LNCaP tumor (24 h p.i.): 89.90 % ID/g
Biodistribution: Lacrimal gland (24 h p.i.): 0.04 % ID/g
Biodistribution: Liver (24 h p.i.): 0.31 % ID/g
Biodistribution: Lungs (24 h p.i.): 0.55 % ID/g
Biodistribution: Muscle (24 h p.i.): 0.08 % ID/g
Biodistribution: Pancreas (24 h p.i.): 0.11 % ID/g
Biodistribution: Salivary gland (24 h p.i.): 0.35 % ID/g
Biodistribution: Seminal gland (24 h p.i.): 0.07 % ID/g
Biodistribution: Spleen (24 h p.i.): 0.35 % ID/g
Biodistribution: Stomach (24 h p.i.): 0.15 % ID/g
Biodistribution: Testes (24 h p.i.): 0.48 % ID/g
Biodistribution: Thyroid (24 h p.i.): 0.40 % ID/g
Biodistribution: Urine (24 h p.i.): 9.85 % ID/g
Biodistribution: kidney (24 h p.i.): 5.58 % ID/g
Biodistribution: Adrenal gland (72 h p.i.): 0.34 % ID/g
Biodistribution: Blood (72 h p.i.): 0.07 % ID/g
Biodistribution: Bone (72 h p.i.): 0.02 % ID/g
Biodistribution: Brain (72 h p.i.): 0.01 % ID/g
Biodistribution: Fat (72 h p.i.): 0.15 % ID/g
Biodistribution: Heart (72 h p.i.): 0.10 % ID/g
Biodistribution: Intestine (72 h p.i.): 0.04 % ID/g
Biodistribution: LNCaP tumor (72 h p.i.): 70.84 % ID/g
Biodistribution: Lacrimal gland (72 h p.i.): 0.01 % ID/g
Biodistribution: Liver (72 h p.i.): 0.23 % ID/g
Biodistribution: Lungs (72 h p.i.): 0.16 % ID/g
Biodistribution: Muscle (72 h p.i.): 0.02 % ID/g
Biodistribution: Pancreas (72 h p.i.): 0.04 % ID/g
Biodistribution: Salivary gland (72 h p.i.): 0.14 % ID/g
Biodistribution: Seminal gland (72 h p.i.): 0.03 % ID/g
Biodistribution: Spleen (72 h p.i.): 0.38 % ID/g
Biodistribution: Stomach (72 h p.i.): 0.04 % ID/g
Biodistribution: Testes (72 h p.i.): 0.29 % ID/g
Biodistribution: Thyroid (72 h p.i.): 0.16 % ID/g
Biodistribution: Urine (72 h p.i.): 2.63 % ID/g
Biodistribution: kidney (72 h p.i.): 3.21 % ID/g
Biodistribution: Adrenal gland (144 h p.i.): 0.23 % ID/g
Biodistribution: Blood (144 h p.i.): 0.01 % ID/g
Biodistribution: Bone (144 h p.i.): 0.02 % ID/g
Biodistribution: Brain (144 h p.i.): 0.01 % ID/g
Biodistribution: Fat (144 h p.i.): 0.22 % ID/g
Biodistribution: Heart (144 h p.i.): 0.04 % ID/g
Biodistribution: Intestine (144 h p.i.): 0.01 % ID/g
Biodistribution: LNCaP tumor (144 h p.i.): 116.43 % ID/g
Biodistribution: Lacrimal gland (144 h p.i.): 0.00 % ID/g
Biodistribution: Liver (144 h p.i.): 0.09 % ID/g
Biodistribution: Lungs (144 h p.i.): 0.08 % ID/g
Biodistribution: Muscle (144 h p.i.): 0.01 % ID/g
Biodistribution: Pancreas (144 h p.i.): 0.01 % ID/g
Biodistribution: Salivary gland (144 h p.i.): 0.05 % ID/g
Biodistribution: Seminal gland (144 h p.i.): 0.01 % ID/g
Biodistribution: Spleen (144 h p.i.): 0.37 % ID/g
Biodistribution: Stomach (144 h p.i.): 0.02 % ID/g
Biodistribution: Testes (144 h p.i.): 0.15 % ID/g
Biodistribution: Thyroid (144 h p.i.): 0.11 % ID/g
Biodistribution: Urine (144 h p.i.): 1.88 % ID/g
Biodistribution: kidney (144 h p.i.): 1.98 % ID/g
Biodistribution: Adrenal gland (240 h p.i.): 0.02 % ID/g
Biodistribution: Blood (240 h p.i.): 0.00 % ID/g
Biodistribution: Bone (240 h p.i.): 0.01 % ID/g
Biodistribution: Brain (240 h p.i.): 0.00 % ID/g
Biodistribution: Fat (240 h p.i.): 0.06 % ID/g
Biodistribution: Heart (240 h p.i.): 0.01 % ID/g
Biodistribution: Intestine (240 h p.i.): 0.01 % ID/g
Biodistribution: LNCaP tumor (240 h p.i.): 95.45 % ID/g
Biodistribution: Lacrimal gland (240 h p.i.): 0.00 % ID/g
Biodistribution: Liver (240 h p.i.): 0.06 % ID/g
Biodistribution: Lungs (240 h p.i.): 0.14 % ID/g
Biodistribution: Muscle (240 h p.i.): 0.01 % ID/g
Biodistribution: Pancreas (240 h p.i.): 0.00 % ID/g
Biodistribution: Salivary gland (240 h p.i.): 0.01 % ID/g
Biodistribution: Seminal gland (240 h p.i.): 0.00 % ID/g
Biodistribution: Spleen (240 h p.i.): 0.50 % ID/g
Biodistribution: Stomach (240 h p.i.): 0.01 % ID/g
Biodistribution: Testes (240 h p.i.): 0.08 % ID/g
Biodistribution: Thyroid (240 h p.i.): 0.03 % ID/g
Biodistribution: Urine (240 h p.i.): 0.43 % ID/g
Biodistribution: kidney (240 h p.i.): 0.46 % ID/g
SMILES: O=C([O-])CN1CCN(CC(=O)[O-])CCN(CC(=O)NCCCCC(NC(=O)CNC(=O)CCCc2ccc([N+](=O)[O-])cc2)C(=O)NCC(=O)NCC2CCC(C(=O)NC(Cc3c4ccccc4cc4ccccc34)C(=O)NCCCCC(NC(=O)NC(CCCC(=O)O)C(=O)O)C(=O)O)CC2)CCN(CC(=O)[O-])CC1.[177Lu+3] (stereo not shown) [^177Lu-CCZ02017] ({Butanoyl(4-(4-NO2Ph))}-G[ξK](DOTA)G[X1][ξAla(9-anthryl)]-{ξLys(Nα-CO-ξAad)})

From patent publication US20250186627A1, “RADIOLABELED COMPOUNDS TARGETING THE PROSTATE-SPECIFIC MEMBRANE ANTIGEN” (PROVINCIAL HEALTH SERVICES AUTHORITY, priority 2022, published 2025)
